Format in all cases: cell-based
In assay [1] the target is T1, NLRP3 (Homo sapiens, UniProt Q96P20).
T1 construct: host or cells: PMA-differentiated THP-1 cells
The assay can be described thus: Measurement of IL-1β production (NLRP3 hIL1β EC50), PMA-differentiated THP-1 cells. Conditions: human IL-1β production; assayed using one or more of the described procedures. Here is the method: THP-1 cells were purchased from the American Type Culture Collection and sub-cultured according to instructions from the supplier. Prior to experiments, cells were cultured in RPMI 1640 containing 10% heat inactivated FBS, penicillin (100 units/ml) and streptomycin (100 μg/ml), and maintained in log phase prior to experimental setup. Prior to the experiment THIP-1 were treated with PMA (Phorbol 12-myristate 13-acetate) (10 μg/ml) for 24 hours. The day of the experiment the media was removed and attaching cells were treated with trypsin for 2 minutes, cells were then collected, washed with PBS (phosphate buffer saline), spin down, resuspended in 2% heat inactivated FBS with RPMI at a concentration of 1×10^6 cells/ml, and 100 μl was plated in a 96 well plate. Compounds were dissolved in dimethyl sulfoxide (DMSO) and added to the culture medium to achieve desired concentration (e.g. 100, 30, 10, 3, 1, 0.3 or 0.1 μM). Cells were incubated with compounds for 4 hours. Cell free supernatant was collected and the production of IL-1β was evaluated by ELISA. A vehicle only control was run concurrently with each experiment. Final DMSO concentration was 1%.
THP-1 cells were purchased from the American Type Culture Collection and sub-cultured according to instructions from the supplier. Prior to experiments, cells were cultured in RPMI 1640 containing 10% heat inactivated FBS, penicillin (100 units/ml), streptomycin (100 μg/ml), HEPES (10 mM) and sodium pyruvate (1 mM) and maintained in log phase prior to experimental setup. Prior to the experiment, THP-1 cells were treated with PMA (Phorbol 12-myristate 13-acetate) (20 μg/ml) overnight. The day of the experiment, the media was removed and attached cells were treated with trypsin for 2 minutes, cells were then collected, washed with PBS (phosphate buffer saline), pelleted by centrifugation and resuspended in 2% heat inactivated FBS with RPMI at a concentration of 50,000 cells/well in a 384 well plate. Cell free supernatant was collected and the production of IL-1β was evaluated by ELISA. Compounds were dissolved in dimethyl sulfoxide (DMSO) and added to the culture medium to achieve desired concentration (e.g. 100, 30, 10, 3, 1, 0.3 or 0.1 μM). Cells were incubated with compounds for 2 hours. A vehicle only control was run concurrently with each experiment. Final DMSO concentration was 1%.
Serial dilutions of compounds in DMSO were added to low volume 384 well plates at 100 nl/well using an ECHO 550 acoustic dispenser (Labcyte) to achieve final starting concentration of 10 μM in assay.
THP-1 cells in RPMI (Gibco, 11875) media with 10% FBS at a density of 1×10^6 cell/ml in a T175 flask were treated with a final concentration of phorbol 12-myristate 13-acetate (PMA) (Sigma,P1585) of 50 ng/ml overnight at 37° C. at 5% CO2 for differentiation. Cells were harvested the next day after rinsing well with dPBS using 0.5% trypsin. A cell solution was prepared of 1×10^6 cells/ml for 50,000 cells in 50 μl/well in RPMI media with 2% FBS. Cells were plated using a multichannel pipette onto the compound dilutions in Greiner, 384 well, black clear bottom tissue culture treated plates (781090). The plates were incubated in 37° C. incubator at 5% CO2 for 2 hours.
After the 2 hour incubation, the cell plates were spun in the centrifuge for 5 minutes at 1200 rpm. Using the Felix (CyBio), 8 μl of the supernatant was transferred to 384 well, low volume, white proxy plates. (Perkin Elmer, 6008230). A human IL1beta hTRF kit was used to analyze the supernatant (CISBIO, 62HIL1BPEG). The kit instructions were followed for preparing the IL1Beta standard curve and then the antibodies from the kit were diluted 1:40 rather than 1:20 as kit instructed. Once combined, the antibodies were added across the plates, 5 μl/well. The plates were sealed and incubated at 4° C. overnight. The plates were then read on the Perkin Elmer EnVision at 665/615 nm using the hTRF laser.

For assay [2], the target named is T2, human TLR7 (Homo sapiens, UniProt Q9NYK1).
T2 construct: host or cells: HEK-Blue cells (human HEK) co-expressing TLR7 and an NF-kB/AP1-inducible SEAP reporter
T2 sequence (Q9NYK1 27-1049): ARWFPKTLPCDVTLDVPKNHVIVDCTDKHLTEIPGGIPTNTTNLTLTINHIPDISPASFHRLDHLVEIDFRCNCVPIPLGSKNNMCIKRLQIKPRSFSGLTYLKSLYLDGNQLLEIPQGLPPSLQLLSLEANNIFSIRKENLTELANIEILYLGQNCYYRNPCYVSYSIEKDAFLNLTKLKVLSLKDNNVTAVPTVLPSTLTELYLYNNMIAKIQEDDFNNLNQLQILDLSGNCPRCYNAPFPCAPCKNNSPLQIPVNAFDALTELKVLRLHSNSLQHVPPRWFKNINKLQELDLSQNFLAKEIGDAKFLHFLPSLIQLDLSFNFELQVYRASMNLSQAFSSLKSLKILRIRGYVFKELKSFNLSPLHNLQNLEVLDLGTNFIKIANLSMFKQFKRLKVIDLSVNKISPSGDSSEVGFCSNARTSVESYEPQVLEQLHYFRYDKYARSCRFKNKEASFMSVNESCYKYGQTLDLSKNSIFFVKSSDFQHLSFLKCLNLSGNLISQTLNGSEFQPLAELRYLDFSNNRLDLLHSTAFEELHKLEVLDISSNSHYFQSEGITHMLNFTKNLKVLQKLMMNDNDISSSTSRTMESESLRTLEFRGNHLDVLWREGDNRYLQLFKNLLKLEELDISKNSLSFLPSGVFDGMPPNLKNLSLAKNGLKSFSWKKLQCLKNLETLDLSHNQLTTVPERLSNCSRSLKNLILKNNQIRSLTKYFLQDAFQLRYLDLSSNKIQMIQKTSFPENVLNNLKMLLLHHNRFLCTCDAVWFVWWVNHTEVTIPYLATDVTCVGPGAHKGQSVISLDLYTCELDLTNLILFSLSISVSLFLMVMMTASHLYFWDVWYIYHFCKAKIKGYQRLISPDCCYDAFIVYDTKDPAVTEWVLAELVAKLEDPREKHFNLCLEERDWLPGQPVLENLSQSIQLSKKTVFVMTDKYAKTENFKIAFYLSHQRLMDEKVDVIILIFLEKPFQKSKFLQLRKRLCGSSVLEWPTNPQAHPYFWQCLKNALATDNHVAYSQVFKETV
The assay can be described thus: In vitro human TLR7 reporter assay (HEK-Blue cells, NF-kB/AP1-inducible SEAP). Conditions: TLR7 agonist EC50, HEK-Blue TLR7 NF-kB-SEAP reporter cells. Here is the method: (§1) Logarithmically-growing human HEK-Blue cells co-expressing a TLR7 or TLR8 gene and a NF-kB/AP1-inducible SEAP (secreted embryonic alkaline phosphatase; Invivogen, San Diego, CA) reporter gene are added to individual wells of a 384-well plate (15,000 cells per 20 μL per well) and maintained for 24 h at 37° C., 5% CO2. Test compounds or DMSO are distributed to separate wells the next day using acoustic liquid handling technology (100 nL per well) and cells are subsequently incubated for 18 h at 37° C., 5% CO2. Cellular SEAP production is measured using an Envision plate reader instrument thirty minutes after adding freshly-made Quanti-Blue reagent (prepared by following manufacturer instructions; Invivogen, San Diego, CA) to the HEK-Blue TLR Nf-kB-SEAP cell reactions. All EC50 values (half-maximal effective concentration) are determined using proprietary data analysis software. Normalized EC50 value=absolute value determined by setting 100% Ymax using a reference standard RLU (relative light unit) values from cells treated with 50 μM of the reference standard.

For assay [3], the target named is T3, human TLR8 (Homo sapiens, UniProt Q9NR97).
T3 construct: host or cells: HEK-Blue cells (human HEK) co-expressing TLR8 and an NF-kB/AP1-inducible SEAP reporter
T3 sequence (Q9NR97 27-1041): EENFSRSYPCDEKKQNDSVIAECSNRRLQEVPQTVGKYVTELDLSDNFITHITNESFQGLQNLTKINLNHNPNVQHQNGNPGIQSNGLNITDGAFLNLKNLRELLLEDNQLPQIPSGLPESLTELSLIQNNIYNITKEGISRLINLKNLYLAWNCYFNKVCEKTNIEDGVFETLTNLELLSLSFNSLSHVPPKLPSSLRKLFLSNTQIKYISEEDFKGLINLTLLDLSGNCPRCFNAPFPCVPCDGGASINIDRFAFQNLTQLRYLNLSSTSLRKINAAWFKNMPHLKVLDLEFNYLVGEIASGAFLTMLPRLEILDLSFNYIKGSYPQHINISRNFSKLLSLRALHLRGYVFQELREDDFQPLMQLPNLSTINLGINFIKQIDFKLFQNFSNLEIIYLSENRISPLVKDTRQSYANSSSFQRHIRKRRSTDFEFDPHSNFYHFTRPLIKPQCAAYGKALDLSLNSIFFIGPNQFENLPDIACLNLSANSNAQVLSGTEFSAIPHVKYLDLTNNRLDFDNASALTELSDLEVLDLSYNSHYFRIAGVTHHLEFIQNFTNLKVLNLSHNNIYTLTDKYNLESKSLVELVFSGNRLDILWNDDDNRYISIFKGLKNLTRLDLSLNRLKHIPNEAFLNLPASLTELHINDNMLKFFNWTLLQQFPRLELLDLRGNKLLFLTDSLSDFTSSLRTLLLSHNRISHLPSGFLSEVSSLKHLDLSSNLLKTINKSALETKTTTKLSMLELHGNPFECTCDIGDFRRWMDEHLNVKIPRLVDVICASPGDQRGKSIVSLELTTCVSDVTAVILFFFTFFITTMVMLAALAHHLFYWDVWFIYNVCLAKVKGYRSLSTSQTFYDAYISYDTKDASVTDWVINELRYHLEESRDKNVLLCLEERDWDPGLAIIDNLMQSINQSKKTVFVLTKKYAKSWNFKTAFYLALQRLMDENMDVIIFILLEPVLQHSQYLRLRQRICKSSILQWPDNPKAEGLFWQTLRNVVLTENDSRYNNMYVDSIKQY
The assay can be described thus: In vitro human TLR8 reporter assay (HEK-Blue cells, NF-kB/AP1-inducible SEAP). Conditions: TLR8 agonist EC50, HEK-Blue TLR8 NF-kB-SEAP reporter cells. Here is the method: as §1

The record followed here is patent publication US12492200B2, “NLRP3 modulators” (INNATE TUMOR IMMUNITY, INC., priority 2020, dated 2025).

T1 sequence (Q96P20 whole entry): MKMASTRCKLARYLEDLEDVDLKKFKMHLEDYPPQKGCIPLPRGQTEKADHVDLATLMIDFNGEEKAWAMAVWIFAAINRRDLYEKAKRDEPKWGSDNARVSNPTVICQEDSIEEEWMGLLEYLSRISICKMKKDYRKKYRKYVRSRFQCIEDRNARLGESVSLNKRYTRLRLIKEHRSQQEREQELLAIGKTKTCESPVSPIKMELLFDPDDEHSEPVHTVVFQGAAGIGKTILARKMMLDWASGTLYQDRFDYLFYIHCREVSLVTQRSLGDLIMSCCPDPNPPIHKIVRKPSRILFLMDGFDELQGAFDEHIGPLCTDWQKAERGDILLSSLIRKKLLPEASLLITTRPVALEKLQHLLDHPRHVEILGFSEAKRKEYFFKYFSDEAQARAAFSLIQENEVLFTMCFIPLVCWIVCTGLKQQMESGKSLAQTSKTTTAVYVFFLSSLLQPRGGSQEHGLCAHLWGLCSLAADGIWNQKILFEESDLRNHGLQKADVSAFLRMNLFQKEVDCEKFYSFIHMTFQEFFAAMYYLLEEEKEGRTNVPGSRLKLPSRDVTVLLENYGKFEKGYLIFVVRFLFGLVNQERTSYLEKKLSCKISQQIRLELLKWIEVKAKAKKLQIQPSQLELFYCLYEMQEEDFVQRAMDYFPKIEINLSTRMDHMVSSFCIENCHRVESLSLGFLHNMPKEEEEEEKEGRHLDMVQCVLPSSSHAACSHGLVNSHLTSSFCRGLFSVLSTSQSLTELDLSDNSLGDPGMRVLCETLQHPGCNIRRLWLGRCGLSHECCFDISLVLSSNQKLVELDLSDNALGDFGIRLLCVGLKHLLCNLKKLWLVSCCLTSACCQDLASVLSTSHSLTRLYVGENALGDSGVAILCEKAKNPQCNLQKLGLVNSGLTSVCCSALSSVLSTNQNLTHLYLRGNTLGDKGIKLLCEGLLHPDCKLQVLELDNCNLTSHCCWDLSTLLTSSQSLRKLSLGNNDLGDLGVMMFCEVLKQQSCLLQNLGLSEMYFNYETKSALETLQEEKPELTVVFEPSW

For the molecule `Nc1nc2cc(-c3cc[nH]n3)ccc2c2[nH]c([C@H]3CCCN(C(=O)Cc4ccccc4)C3)nc12` [Example 40], the concentration giving a half-maximal response (EC50) came out at 3800 nM in assay [1] and 58 µM in assay [2].
Turning to `CC(C)CC(=O)N1CCC[C@H]1Cc1nc2c(N)nc3cc(-c4cc[nH]n4)ccc3c2[nH]1` [Example 87], the results for the half-maximal effective concentration (EC50) in assay [1] and in assay [3] were 4300 nM and 77 µM, respectively.
For `N#CC1(C(=O)N2CCC[C@@H](c3nc4c(N)nc5cc(-c6cc[nH]n6)ccc5c4[nH]3)C2)CCCC1` [Example 70], the 50% effective concentration (EC50) was found to be 3900 nM in assay [1] and 57 µM in assay [2].
As to `N#CC1(C(=O)N2CCC[C@H](c3nc4c(N)nc5cc(-c6cc[nH]n6)ccc5c4[nH]3)C2)CCCC1` [Example 39], the EC50 in assay [1] turned out to be 2500 nM; in assay [2], 35 µM.
Consider `CC(C)(C)OC(=O)N1CCC[C@@H](c2nc3c(N)nc4cc(-c5cc[nH]n5)ccc4c3[nH]2)C1` [Example 6, tert-Butyl (R)-3-(4-amino-7-(1H-pyrazol-3-yl)-1H-imidazo[4,5-c]quinolin-2-yl)piperidine-1-carboxylate], for which the EC50 in assay [1] came to 360 nM; in assay [3] it was 10 µM.
`CC(C)(C)C(=O)N1CCC[C@H](c2nc3c(N)nc4cc(-c5cc[nH]n5)ccc4c3[nH]2)C1` [Example 28]: the EC50 in assay [1] amounted to 1200 nM; in assay [3], 47 µM.
On to `N#CC1(C(=O)N2CCC[C@H](c3nc4c(N)nc5cc(-c6cc[nH]n6)ccc5c4[nH]3)C2)CCCCC1` [Example 38], for which the EC50 turned out to be 2000 nM in assay [1] and 17 µM in assay [3].
For `CC(C)(C)OC(=O)N1CCC[C@H](c2nc3c(N)nc4cc(-c5cc[nH]n5)ccc4c3[nH]2)C1` [Example 1, tert-Butyl (S)-3-(4-amino-7-(1H-pyrazol-3-yl)-1H-imidazo[4,5-c]quinolin-2-yl)piperidine-1-carboxylate], the 50% effective concentration (EC50) in assay [1] amounted to 330 nM; in assay [3], 10 µM.
With `N#CC1(C(=O)N2CCC[C@H](c3nc4c(N)nc5cc(-c6cc[nH]n6)ccc5c4[nH]3)C2)CC1` [Example 3, (S)-1-(3-(4-Amino-7-(1H-pyrazol-3-yl)-1H-imidazo[4,5-c]quinolin-2-yl)piperidine-1-carbonyl)cyclopropane-1-carbonitrile], the EC50 was 980 nM in assay [1] and 0.62 µM in assay [2].
Regarding `CCCC(=O)N1CCC[C@H](c2nc3c(N)nc4cc(-c5cc[nH]n5)ccc4c3n2CC)C1` [Example 42], a half-maximal response in assay [1] (EC50) required 220 nM.
Take `N#CC1(C(=O)N2CCC[C@H](c3nc4c(N)nc5cc(-c6cc[nH]n6)ccc5c4[nH]3)C2)CCC1` [Example 37]: in assay [1], the concentration giving a half-maximal response (EC50) was 4700 nM.
Same read-out and setting: the same measure for `CC(C)(C)OC(=O)N1CCC[C@H]1Cc1nc2c(N)nc3cc(-c4cc[nH]n4)ccc3c2[nH]1` [Example 16, tert-Butyl (S)-2-((4-amino-7-(1H-pyrazol-3-yl)-1H-imidazo[4,5-c]quinolin-2-yl)methyl)pyyrolidine-1-carboxylate]: 3700 nM; for `Nc1nc2cc(-c3cc[nH]n3)ccc2c2[nH]c(C[C@@H]3CCCN3C(=O)c3ccccc3)nc12` [Example 96]: 11000 nM.
In turn, `CCCC(=O)N1CCC[C@@H](c2nc3c(N)nc4cc(-c5cc[nH]n5)ccc4c3[nH]2)C1` [Example 62] yielded an EC50 in assay [1] of 1200 nM.
Consider `Nc1nc2cc(-c3cc[nH]n3)ccc2c2[nH]c(C[C@H]3CCCN3C(=O)c3ccccn3)nc12` [Example 85], for which the midpoint of the response in assay [1], the EC50, lay at 5900 nM.
